In ChEMBL document CHEMBL5338818, “Discovery of the First Potent, Selective, and In Vivo Efficacious Polo-like Kinase 4 Proteolysis Targeting Chimera Degrader for the Treatment of TRIM37-Amplified Breast Cancer” (J Med Chem, 2023):
The source made the active and inactive calls. The calls are words filed in the database; no cut-off is given here.

Columns and labels:
[1] = Stability in human plasma assessed as compound remaining at 100 uM after 120 mins by LC-MS/MS analysis (reference value: 100%); format: ADME, cell-free; conditions: read-out: Stability
[2] = Apparent permeability across apical to basolateral side in human Caco-2 cells at 2 uM incubated for 2 hrs by LC-MS/MS analysis; format: ADME, cell-based
[3] = Metabolic stability in mouse liver microsomes assessed as half life at 100 uM incubated for 60 mins in presence of NADPH by LC-MS/MS analysis; format: ADME, Microsome
[4] = Stability in human plasma assessed as compound remaining at 100 uM after 10 mins by LC-MS/MS analysis (reference value: 100%); format: ADME, cell-free; conditions: read-out: Stability
[5] = AUClast in ICR mouse at 20 mg/kg, ip measured upto 24 hrs by LC-M/MS analysis; format: ADME, organism-based; design: dose 20 mg/kg, time < 24 hrs, route ip; conditions: in vivo
[6] = Metabolic stability in human liver microsomes assessed as compound remaining at 100 uM incubated for 60 mins by LC-MS/MS analysis; format: ADME, Microsome; conditions: read-out: Stability
[7] = Observed AUC infinity in ICR mouse at 20 mg/kg, ip measured upto 24 hrs by LC-M/MS analysis; format: ADME, organism-based; design: dose 20 mg/kg, time < 24 hrs, route ip; conditions: in vivo
[8] = Stability in human plasma assessed as compound remaining at 100 uM after 60 mins by LC-MS/MS analysis (reference value: 100%); format: ADME, cell-free; conditions: read-out: Stability
[9] = Observed clearance in ICR mouse at 2 mg/kg, iv measured upto 24 hrs by LC-M/MS analysis; format: ADME, organism-based; conditions: in vivo
[10] = Toxicity in nu/nu mouse xenografted with human MCF7 cells assessed as effect on spleen at 20 mg/kg, ip administered once every other day for 21 days by HE staining based analysis; format: organism-based; conditions: in vivo, 504 h, time 21 day
CYP2D6 = experiment: Inhibition of CYP2D6 in human liver microsomes at 10 uM using quinidine as substrate preincubated for 10 mins followed by NADPH regenerating system addition and measured after 15 mins by LC-MS/MS analysis relative to control; format: ADME, Microsome; conditions: time 25 min
CYP1A2 = molecular target: T1, CYP1A2 (Homo sapiens, UniProt P05177); experiment: Inhibition of CYP1A2 in human liver microsomes at 10 uM using alpha-Naphthoflavone as substrate preincubated for 10 mins followed by NADPH regenerating system addition and measured after 15 mins by LC-MS/MS analysis relative to control; format: ADME, Microsome; conditions: time 25 min
T1 sequence (P05177 whole entry): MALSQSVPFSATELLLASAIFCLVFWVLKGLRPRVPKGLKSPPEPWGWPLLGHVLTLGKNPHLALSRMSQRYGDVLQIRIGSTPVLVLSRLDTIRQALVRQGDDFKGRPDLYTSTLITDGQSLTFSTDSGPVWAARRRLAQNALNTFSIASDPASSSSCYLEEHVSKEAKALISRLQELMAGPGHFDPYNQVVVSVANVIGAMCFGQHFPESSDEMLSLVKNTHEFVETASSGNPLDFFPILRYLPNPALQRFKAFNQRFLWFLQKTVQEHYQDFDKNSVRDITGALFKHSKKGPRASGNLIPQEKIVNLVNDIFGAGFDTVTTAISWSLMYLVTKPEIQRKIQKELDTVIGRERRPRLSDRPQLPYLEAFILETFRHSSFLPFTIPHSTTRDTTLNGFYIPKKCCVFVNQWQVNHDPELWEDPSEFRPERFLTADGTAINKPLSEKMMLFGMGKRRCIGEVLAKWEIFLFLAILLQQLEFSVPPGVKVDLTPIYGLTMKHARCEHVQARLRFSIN

[11] = Metabolic stability in rat liver microsomes assessed as compound remaining at 100 uM incubated for 60 mins by LC-MS/MS analysis; format: ADME, Microsome; conditions: read-out: Stability
[12] = Metabolic stability in rat liver microsomes assessed as compound remaining at 100 uM incubated for 60 mins in presence of NADPH by LC-MS/MS analysis; format: ADME, Microsome; conditions: read-out: Stability
[13] = AUClast in ICR mouse at 2 mg/kg, iv measured upto 24 hrs by LC-M/MS analysis; format: ADME, organism-based; design: time < 24 hrs, dose 2 mg/kg, route iv; conditions: in vivo
MCF7 [14] = experiment: Inhibition of human MCF7 cells migration incubated for 48 hrs by inverted microscopic analysis; format: functional, cell-based; conditions: dose 0.1-1 µM
MCF7 [15] = experiment: Antiproliferative activity against human MCF7 cells measured at 4 to 8 days interval by cell counting analysis; format: functional, cell-based; conditions: time 4-8 day
[16] = molecular target: Protein cereblon/Serine/threonine-protein kinase PLK4 (Homo sapiens, UniProt O00444+Q96SW2); experiment: Protac activity at CRBN/PLK4 in human MCF7 cells at 1 uM in presence of BAF by Western blot analysis; format: cell-based
Protein cereblon/Serine/threonine-protein kinase PLK4, sequence (O00444 whole entry, looked up): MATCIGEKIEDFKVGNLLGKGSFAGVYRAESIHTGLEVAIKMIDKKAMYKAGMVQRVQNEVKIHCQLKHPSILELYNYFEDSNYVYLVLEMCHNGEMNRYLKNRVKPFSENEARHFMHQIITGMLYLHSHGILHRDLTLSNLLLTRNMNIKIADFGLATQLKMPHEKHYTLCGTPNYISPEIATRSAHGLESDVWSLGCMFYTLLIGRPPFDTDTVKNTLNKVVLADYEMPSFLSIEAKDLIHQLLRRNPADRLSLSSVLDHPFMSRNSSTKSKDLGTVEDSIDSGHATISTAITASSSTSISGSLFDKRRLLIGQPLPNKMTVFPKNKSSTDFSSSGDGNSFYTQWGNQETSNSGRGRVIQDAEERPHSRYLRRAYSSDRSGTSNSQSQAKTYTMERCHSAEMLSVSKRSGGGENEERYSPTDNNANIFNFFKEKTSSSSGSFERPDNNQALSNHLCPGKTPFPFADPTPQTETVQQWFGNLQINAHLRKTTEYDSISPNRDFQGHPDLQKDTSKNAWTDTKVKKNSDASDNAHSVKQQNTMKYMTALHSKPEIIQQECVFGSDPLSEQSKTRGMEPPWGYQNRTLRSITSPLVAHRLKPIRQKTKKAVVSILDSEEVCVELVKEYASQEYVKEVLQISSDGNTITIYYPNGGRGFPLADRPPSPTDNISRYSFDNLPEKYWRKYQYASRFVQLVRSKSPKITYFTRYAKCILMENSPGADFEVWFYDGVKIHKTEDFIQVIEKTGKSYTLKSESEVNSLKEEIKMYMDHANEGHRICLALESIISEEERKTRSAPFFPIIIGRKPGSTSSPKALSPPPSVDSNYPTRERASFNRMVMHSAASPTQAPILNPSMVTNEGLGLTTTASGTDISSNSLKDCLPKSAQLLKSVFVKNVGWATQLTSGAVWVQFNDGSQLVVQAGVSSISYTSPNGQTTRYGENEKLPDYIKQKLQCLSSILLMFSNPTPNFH
Protein cereblon/Serine/threonine-protein kinase PLK4, sequence (Q96SW2 whole entry, looked up): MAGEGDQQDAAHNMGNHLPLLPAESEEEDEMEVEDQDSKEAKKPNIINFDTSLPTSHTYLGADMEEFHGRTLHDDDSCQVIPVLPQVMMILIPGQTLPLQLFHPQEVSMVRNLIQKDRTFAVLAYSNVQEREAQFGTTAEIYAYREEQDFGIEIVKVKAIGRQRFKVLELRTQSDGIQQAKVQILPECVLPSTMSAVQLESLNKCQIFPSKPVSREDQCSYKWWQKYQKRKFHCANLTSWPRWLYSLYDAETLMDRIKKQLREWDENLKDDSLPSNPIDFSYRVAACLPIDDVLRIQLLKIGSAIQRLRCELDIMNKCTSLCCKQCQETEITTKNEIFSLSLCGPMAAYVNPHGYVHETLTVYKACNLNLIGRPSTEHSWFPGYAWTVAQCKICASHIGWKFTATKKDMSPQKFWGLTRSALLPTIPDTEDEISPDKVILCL

[17] = Observed mean […] time infinity in ICR mouse at 2 mg/kg, iv measured upto 24 hrs by LC-M/MS analysis; format: ADME, organism-based; conditions: in vivo
[18] = Tmax in ICR mouse at 20 mg/kg, ip measured upto 24 hrs by LC-M/MS analysis; format: ADME, organism-based; conditions: in vivo
MCF7 [19] = experiment: Antitumor activity against human MCF7 cells xenografted in nu/nu mouse assessed as tumor growth inhibition at 20 mg/kg, ip administered once every other day for 21 days; format: functional; conditions: MCF7, 504 h, time 21 day, read-out: TGI
[20] = Observed mean […] time infinity in ICR mouse at 20 mg/kg, ip measured upto 24 hrs by LC-M/MS analysis; format: ADME, organism-based; conditions: in vivo
[21] = Stability in human plasma assessed as half life at 100 uM after 120 mins by LC-MS/MS analysis; format: ADME, cell-free
MCF7 [22] = experiment: Antiproliferative activity against human MCF7 cells incubated for 5 days by CCK-8 assay; conditions: MCF7, 120 h
[23] = Half life in ICR mouse at 20 mg/kg, ip measured upto 24 hrs by LC-M/MS analysis; format: ADME, organism-based; conditions: in vivo

With `Cc1cc(Nc2nc(NCc3ccc(F)cc3F)nc3c2cnn3C2CCN(C(=O)C3CCN(c4ccc5c(c4)C(=O)N(C4CCC(=O)NC4=O)C5=O)CC3)CC2)n[nH]1` (stereo not given) the remaining at 2 h, 100 µM [1] was 69.9%, the Papp A→B at 2 h, 2 µM [2] was 0.48 ×10⁻⁶ cm/s and the half-life at 100 µM [3] was 1.35 h. For the same compound, the remaining at 10 min, 100 µM [4] was 93.9%, the AUC(0-t) at 24 h [5] was 14000 ng·h/mL and the remaining at 1 h, 100 µM [6] was 97.3%. It also gave an AUC(0-inf) [7] of 14200 ng·h/mL, a remaining at 1 h, 100 µM [8] of 83.6% and a clearance [9] of 34.9 mL/min/kg. The Activity [10] was “Non-Toxic”, the inhibition at 0.25 h, 10 µM (CYP2D6) was 5.6% and the inhibition at 0.25 h, 10 µM (CYP1A2) was 10.4%. It also gave a remaining at 1 h, 100 µM [11] of 93.1%, a remaining at 1 h, 100 µM [12] of 51.5% and an AUC(0-t) at 24 h [13] of 941 ng·h/mL. For the same compound, the inhibition (MCF7 [14]) was “Dose-Dependent Effect”, the Activity (MCF7 [15]) was “Active” and the Activity [16] was “inactive”. For the same compound, the Time [17] was 2.29 h, the Tmax [18] was 1.42 h and the inhibition in vivo at 20 mg/kg (MCF7 [19]) was 73.7%. The Time [20] was 3.93 h, the half-life at 100 µM [21] was > 2 h and the IC50 (MCF7 [22]) was 0.073 µM. For the same compound, the half-life [23] was 4.66 h.
